Source: US9517993B2, “Antagonists of the toll-like receptor 1/2 complex” (THE REGENTS OF THE UNIVERSITY OF COLORADO, a body corporate, priority 2012, dated 2016)

What was measured:
Type in all cases: cell-based
[1] = target: T1, TLR2/6 (Mus musculus, UniProt Q9EPW9+Q9QUN7); assay: RAW 264.7 nitric oxide TLR selectivity assay (FSL-1); details: 10 ng/mL FSL-1
T1 construct: RAW 264.7 Cells Nitric Oxide TLR Selectivity Assay; endogenous in cells; host or cells: RAW 264.7
Procedure: (§1) RAW 264.7 (Mouse leukaemic monocyte macrophage cell line) cells were grown in RPMI 1640 medium, supplemented with 10% FBS, penicillin (100 U/mL) and streptomycin ([…]). RAW cells were then planted in 96-well plates at 80,000 cells per well and grown for 24 h in the media descried previously at 37° C. in a 5% CO2 humidified incubator. After 24 h, non-adherent cells and media were removed and replaced with fresh unsupplemented RPMI 1640 medium. The adherent macrophages were treated with Pam3CSK4 (CAS No. 112208-00-1; a synthetic triacylated lipopeptide (LP) that mimics the acylated amino terminus of bacterial LPs) (200 ng/mL) (Invivogen, USA), an agonist of TLR1/2, and then added different concentrates of potential inhibitor. Two rows were only treated with Pam3CSK4 as control. Plates were then incubated for an additional 24 h. Following incubation 100 μL of media was removed and added to flat black 96-well microfluor plates (Thermo Scientific, MA, USA). To each well, 10 μL of 2,3-diaminonaphthalene (0.05 mg/mL in 0.62 M aqueous HCl solution) was added and incubated for 15 min in the dark. The reaction was quenched by addition of 5 μL of a 3 M aqueous NaOH solution and the plate was read on Beckman Coulter DTX880 reader (Beckman Coulter, Calif., USA) with excitation at 365 nm and emission at 450 nm. The nitrite (a stable metabolite of nitric oxide) concentration was determined from a nitrite standard curve. The inhibition rate (%) of NO release was determined using the following formula: Inhibition (%)=[Pam3CSK4(OD450) […]]/[Pam3CSK4 (OD450)−Control (OD450)]×100. The IC50 values for both inhibition and cytotoxicity were determined graphically using software Origin v7.5.
This assay was run in a similar manor as the “In Vitro TLR1/2 Inhibition Assay”. High molecule weight Poly (I:C), LPS (lipopolysaccharide), FSL-1 (Synthetic diacylated lipoprotein—TLR2/TLR6 ligand commercially available from Invivogen, USA), and R848 ([…]) were used to selectively activate TLR3, TLR4, TLR2/6 and TLR7 in place of Pam3CSK4, respectively.

[2] = target: T2, TLR7 (Mus musculus, UniProt P58681); assay: RAW 264.7 nitric oxide TLR selectivity assay (R848); details: 100 nM R848
T2 construct: RAW 264.7 Cells Nitric Oxide TLR Selectivity Assay; endogenous in cells; host or cells: RAW 264.7
T2 sequence (P58681 27-1050): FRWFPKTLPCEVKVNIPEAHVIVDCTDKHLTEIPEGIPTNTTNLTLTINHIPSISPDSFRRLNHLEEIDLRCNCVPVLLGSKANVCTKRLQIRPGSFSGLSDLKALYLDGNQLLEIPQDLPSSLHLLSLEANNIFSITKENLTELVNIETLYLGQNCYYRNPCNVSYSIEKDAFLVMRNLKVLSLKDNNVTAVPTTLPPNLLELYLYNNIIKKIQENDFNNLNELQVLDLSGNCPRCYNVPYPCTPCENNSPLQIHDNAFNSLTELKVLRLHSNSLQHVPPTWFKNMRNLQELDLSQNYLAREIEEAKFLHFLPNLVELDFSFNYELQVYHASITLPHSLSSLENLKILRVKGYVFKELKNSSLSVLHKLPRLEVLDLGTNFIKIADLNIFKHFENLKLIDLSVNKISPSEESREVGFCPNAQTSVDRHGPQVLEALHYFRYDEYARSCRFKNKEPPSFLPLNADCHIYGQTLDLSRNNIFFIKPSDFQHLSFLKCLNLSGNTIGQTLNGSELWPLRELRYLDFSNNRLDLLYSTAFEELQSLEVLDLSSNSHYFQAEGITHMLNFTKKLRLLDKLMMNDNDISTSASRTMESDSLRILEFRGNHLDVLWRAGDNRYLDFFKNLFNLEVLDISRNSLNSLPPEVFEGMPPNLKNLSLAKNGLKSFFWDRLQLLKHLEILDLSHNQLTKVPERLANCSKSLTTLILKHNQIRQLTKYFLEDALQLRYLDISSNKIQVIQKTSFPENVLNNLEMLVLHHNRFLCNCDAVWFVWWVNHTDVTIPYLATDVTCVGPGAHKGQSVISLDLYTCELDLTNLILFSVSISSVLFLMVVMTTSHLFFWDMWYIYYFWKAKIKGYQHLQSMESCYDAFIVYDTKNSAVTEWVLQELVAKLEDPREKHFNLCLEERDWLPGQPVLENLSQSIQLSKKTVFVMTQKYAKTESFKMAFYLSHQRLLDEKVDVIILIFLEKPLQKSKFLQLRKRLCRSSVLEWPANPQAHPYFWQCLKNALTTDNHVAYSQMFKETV
Procedure: as §1, with “Plates were then incubated for an additional 24 h. Following incubation 100 μL of media was removed and added to flat black 96-well microfluor plates (Thermo Scientific, MA, USA). To each well, 10 μL of 2,3-diaminonaphthalene (0.05 mg/mL in 0.62 M aqueous HCl solution) was added and incubated for 15 min in the dark.” left out, “v7.5. […]” for “v7.5.”

[3] = target: T3, TLR1/2 (Mus musculus, UniProt Q9EPQ1+Q9QUN7); assay: In vitro TLR1/2 inhibition assay (nitric oxide, Pam3CSK4-activated RAW 264.7 macrophages); details: for TLR1/2 inhibitory activity (in words, SAR and specificity): RAW 264.7 NO assay, Pam3CSK4; for IC50: RAW 264.7 cells, Pam3CSK4 200 ng/mL, nitric oxide readout, read-out: IC50, inhibition of Pam3CSK4-induced TLR1/2 activation (NO assay)
T3 construct: production of NO in RAW 264.7 macrophage cells; endogenous in cells; host or cells: RAW 264.7
T3 sequence (Q9EPQ1 26-795): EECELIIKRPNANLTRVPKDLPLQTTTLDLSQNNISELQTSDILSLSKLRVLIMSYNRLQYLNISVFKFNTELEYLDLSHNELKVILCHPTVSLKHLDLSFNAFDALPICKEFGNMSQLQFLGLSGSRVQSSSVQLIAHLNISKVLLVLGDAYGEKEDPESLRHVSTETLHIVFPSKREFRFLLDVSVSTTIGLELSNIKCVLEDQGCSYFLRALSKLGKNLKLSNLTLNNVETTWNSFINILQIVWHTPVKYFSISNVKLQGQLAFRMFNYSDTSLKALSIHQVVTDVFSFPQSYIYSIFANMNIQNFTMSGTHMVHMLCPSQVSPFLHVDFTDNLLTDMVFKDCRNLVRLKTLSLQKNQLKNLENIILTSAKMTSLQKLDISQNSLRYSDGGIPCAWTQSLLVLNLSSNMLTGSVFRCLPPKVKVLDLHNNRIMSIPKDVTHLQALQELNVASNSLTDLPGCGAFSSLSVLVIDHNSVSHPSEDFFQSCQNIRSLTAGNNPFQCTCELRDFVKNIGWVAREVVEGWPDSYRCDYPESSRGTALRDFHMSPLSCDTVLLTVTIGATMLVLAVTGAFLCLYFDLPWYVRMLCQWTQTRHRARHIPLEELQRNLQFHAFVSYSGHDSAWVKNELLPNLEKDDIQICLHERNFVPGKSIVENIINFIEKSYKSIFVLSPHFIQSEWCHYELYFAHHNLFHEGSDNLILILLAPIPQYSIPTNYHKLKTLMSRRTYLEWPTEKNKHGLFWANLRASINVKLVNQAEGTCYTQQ
T3 sequence (Q9QUN7 25-784): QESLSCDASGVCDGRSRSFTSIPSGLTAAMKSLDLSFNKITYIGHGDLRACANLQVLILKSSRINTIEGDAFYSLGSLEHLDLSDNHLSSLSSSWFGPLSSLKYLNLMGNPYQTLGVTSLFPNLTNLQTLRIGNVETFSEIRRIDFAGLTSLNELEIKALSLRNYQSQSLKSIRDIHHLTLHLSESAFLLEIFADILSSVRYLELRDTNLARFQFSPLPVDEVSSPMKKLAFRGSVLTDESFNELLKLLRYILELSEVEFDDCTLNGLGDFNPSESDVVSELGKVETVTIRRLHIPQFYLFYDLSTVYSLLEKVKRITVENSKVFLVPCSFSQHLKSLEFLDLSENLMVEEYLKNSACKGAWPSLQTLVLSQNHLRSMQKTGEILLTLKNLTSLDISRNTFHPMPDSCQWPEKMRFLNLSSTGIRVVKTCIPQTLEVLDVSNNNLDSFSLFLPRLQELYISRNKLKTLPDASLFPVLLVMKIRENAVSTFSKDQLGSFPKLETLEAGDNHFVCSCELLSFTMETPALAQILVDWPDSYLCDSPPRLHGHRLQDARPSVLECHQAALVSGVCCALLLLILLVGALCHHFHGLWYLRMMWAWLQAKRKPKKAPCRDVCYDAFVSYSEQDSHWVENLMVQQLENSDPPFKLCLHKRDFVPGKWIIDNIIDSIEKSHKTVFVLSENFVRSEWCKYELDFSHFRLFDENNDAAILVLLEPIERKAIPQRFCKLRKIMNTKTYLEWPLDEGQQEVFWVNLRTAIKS
Procedure: To identify novel TLR1/2 complex inhibitors, a cell-based assay was employed to screen the NCI-2 diversity small-molecule library. This 1,363 compound library was chosen from the larger NCI library, which has more than 140,000 compounds, on the basis of availability, purity, and other pharmacological features, such as relative rigidity, number of rotatable bonds and chiral centers, the absence of obvious leaving groups and weakly bounded heteroatoms, etc. Screening was performed in a 96-well plate format using a previously established high-throughput nitric oxide (NO) assay. See e.g. Cheng et al., Small molecule inhibitors of the TLR3/dsRNA complex, J. Am. Chem. Soc. (2011), 133:3764-67, which is herein incorporated by reference in its entirety. Briefly, synthetic triacylated lipoprotein Pam3CSK4 was employed to selectively activate TLR1/2 signaling, resulting in the expression of inducible nitric oxide synthase (iNOS) and the production of NO in RAW 264.7 macrophage cells. NO levels were monitored as an indicator of Pam3CSK4-induced TLR1/2 activation to evaluate the compound's inhibitory activity.
as §1

T1 sequence (Q9QUN7 25-784): as above
T1 sequence (Q9EPW9 28-795): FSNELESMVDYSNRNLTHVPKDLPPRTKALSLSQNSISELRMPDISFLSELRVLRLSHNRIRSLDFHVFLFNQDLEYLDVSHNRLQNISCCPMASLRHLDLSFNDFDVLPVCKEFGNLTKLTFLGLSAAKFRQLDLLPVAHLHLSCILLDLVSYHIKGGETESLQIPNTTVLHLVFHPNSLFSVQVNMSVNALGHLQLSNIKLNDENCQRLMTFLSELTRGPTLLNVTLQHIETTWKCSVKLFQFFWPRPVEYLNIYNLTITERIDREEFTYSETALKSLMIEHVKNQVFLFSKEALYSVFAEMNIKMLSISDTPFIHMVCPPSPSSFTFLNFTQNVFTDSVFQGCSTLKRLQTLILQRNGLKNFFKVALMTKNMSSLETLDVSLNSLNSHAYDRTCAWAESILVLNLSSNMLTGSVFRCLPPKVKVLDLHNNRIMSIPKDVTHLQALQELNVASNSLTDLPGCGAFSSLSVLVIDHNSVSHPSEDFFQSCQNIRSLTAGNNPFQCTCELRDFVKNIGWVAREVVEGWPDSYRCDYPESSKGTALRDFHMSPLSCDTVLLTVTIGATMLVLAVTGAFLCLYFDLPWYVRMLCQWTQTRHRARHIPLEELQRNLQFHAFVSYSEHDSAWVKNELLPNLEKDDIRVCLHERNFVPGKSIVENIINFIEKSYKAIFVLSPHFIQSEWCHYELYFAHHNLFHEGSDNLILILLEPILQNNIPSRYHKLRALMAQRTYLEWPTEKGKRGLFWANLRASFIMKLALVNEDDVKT

| Compound | inhibition of TLR2/6 signaling ([1]; 0.5 μM compound) | inhibition of TLR2/6 signaling ([1]; 0.5 μM compound, listed as Compound 17) | inhibition of TLR7 signaling ([2]; 0.5 μM compound) | TLR1/2 inhibitory activity (in words, SAR and specificity) [3] | TLR1/2 inhibitory activity (in words, SAR and specificity) ([3]; listed as Compound 17) | IC50 [3] | inhibition of TLR2/6 signaling ([1]; 3 μM compound) | inhibition of TLR7 signaling ([2]; 3 μM compound) |
| --- | --- | --- | --- | --- | --- | --- | --- | --- |
| CCCCCCOC(=O)c1cc(O)c(=O)c2c(O)c(O)c(OC)cc2c1 [compound 17, Hexyl 3,4,6-trihydroxy-2-methoxy-5-oxo-5H-benzo[7]annulene-8-carboxylate] | no significant inhibition | without affecting other TLRs | without affecting other TLRs | highest inhibitory activity | inhibit TLR1/2 signaling | 0.58 ± 0.09 µM | – | – |
| O=c1c(O)cccc2cc(O)c(O)c(O)c12 [NCI35676, purpurogallin, reference compound] | – | – | – | specifically inhibited TLR1/2 signaling | – | 2.45 ± 0.25 µM | no other homologous TLRs | no other homologous TLRs |
